Key:
Assay type in all cases: in vivo
[1] = tested on: barnyard grass (Echinochloa crus-galli); experiment: Pre-emergence application, herbicidal effect on barnyard grass (Table 1); parameters: key: 0: not damaged; 5: completely killed; conditions: 20 days after application, score 0-5
Summary of the method: (§1)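 Compounds, formulated as water-diluted wettable powder, were applied to the soil surface after sowing and covering the seeds in pots of about 10 cm. Effects were rated on a 0 (no damage) to 5 (complete kill) scale after 20 days of greenhouse growth.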

[2] = tested on: large crabgrass (Digitaria sanguinalis); experiment: Pre-emergence application, herbicidal effect on large crabgrass (Table 1); parameters: key: 0: not damaged; 5: completely killed; conditions: 20 days after application, score 0-5
Summary of the method: as §1

[3] = tested on: radish; experiment: Pre-emergence application, herbicidal effect on radish (Table 1); parameters: key: 0: not damaged; 5: completely killed; conditions: 20 days after application, score 0-5
Summary of the method: as §1

[4] = tested on: redroot pigweed (Amaranthus retroflexus); experiment: Pre-emergence application, herbicidal effect on redroot pigweed (Table 1); parameters: key: 0: not damaged; 5: completely killed; conditions: 20 days after application, score 0-5
Summary of the method: as §1

[5] = tested on: common purslane (Portulaca oleracea); experiment: Pre-emergence application, herbicidal effect on common purslane (Table 1); parameters: key: 0: not damaged; 5: completely killed; conditions: 20 days after application, score 0-5
Summary of the method: as §1

[6] = tested on: common lambsquarter (Chenopodium album); experiment: Pre-emergence application, herbicidal effect on common lambsquarter (Table 1); parameters: key: 0: not damaged; 5: completely killed; conditions: 20 days after application, score 0-5
Summary of the method: as §1

[7] = tested on: rice; experiment: Water application, phytotoxicity on rice (Table 2); parameters: key: 0: no effect; 1: very slightly affected; 2: slightly affected; 3: moderately affected; 4: considerably affected; 5: completely killed; conditions: 25 days, score 0-5
Summary of the method: (§2)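 Ratings on a 0–5 scale taken 25 days post-treatment for rice injury, barnyard grass, and naturally emerging monochoria, false pimpernel and toothcup. Compounds as wettable powder went onto waterlogged paddy soil holding rice seedlings transplanted at 3 leaves and barnyard grass seed.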

[8] = tested on: carmine mite (Tetranychus telarius); experiment: Lethal effect on carmine mite, degree of damage on kidney beans (Table 4); parameters: key: -: damage is hardly increased.; +: damage is slightly increased.; ++: damage is fairly increased.; +++: damage is heavily increased; conditions: 25% wettable powder, 200 fold dilute solution, another week after application
From the text: About 50 carmine mite adults were made parasitic on leaves of potted kidney beans at a 2-leaves stage which had elapsed 10 days after swing. After a week, the present compounds of a 25% wettable powder type were each applied in the form of a 200 fold dilute solution.

[9] = tested on: tobacco cut worm (Spondoptera litura); experiment: Lethal effect on tobacco cut worm (Table 5); conditions: tobacco cutworm, larvae on chinese cabbage leaves, 48 h
Method: The present compounds of an emulsifiable concentrate type were applied to leaves of chinese cabbage in the form of an 1000 fold dilute solution. After air-drying, third to fourth instar larvae of tobacco cut worm were released and after 48 hours the death and alive were observed.

[10] = tested on: nematode; experiment: Effect on nematode (Table 7); parameters: tested at 500 ppm; conditions: 500 p.p.m., 24 hours
Method: 0.5 ml. of a nematode-containing aqueous solution separated from food according to Baermann's method was placed in a test tube with ground stopper containing 0.5 ml. of an aqueous dilute solution of each emulsifiable concentrates of the present compounds. The concentration of the active ingredient in the mixture was adjusted to 500 p.p.m. After 24 hours, the death and alive were observed microscopically to calculate the mortality.

[11] = tested on: barnyard grass (Echinochloa crus-galli); experiment: Water application, herbicidal effect on barnyard grass (Table 2); parameters: key: 0: not damaged; 5: completely killed; conditions: 25 days, score 0-5
Summary of the method: as §2

[12] = tested on: broad-leaved weeds, e.g., monochoria, false pimpernel and toothcup; experiment: Water application, herbicidal effect on broad-leaved weeds (Table 2); parameters: key: 0: not damaged; 5: completely killed; conditions: 25 days, score 0-5
Summary of the method: as §2

SMILES	Herbicidal effect, barnyard grass ([1]; 10 g./a.)	Herbicidal effect, barnyard grass ([1]; 20 g./a.)	Herbicidal effect, barnyard grass ([1]; 40 g./a.)	Herbicidal effect, large crabgrass ([2]; 10 g./a.)	Herbicidal effect, large crabgrass ([2]; 20 g./a.)	Herbicidal effect, large crabgrass ([2]; 40 g./a.)	Herbicidal effect, radish ([3]; 10 g./a.)	Herbicidal effect, radish ([3]; 20 g./a.)	Herbicidal effect, radish ([3]; 40 g./a.)	Herbicidal effect, redroot pigweed ([4]; 10 g./a.)	Herbicidal effect, redroot pigweed ([4]; 20 g./a.)	Herbicidal effect, redroot pigweed ([4]; 40 g./a.)	Herbicidal effect, common purslane ([5]; 10 g./a.)	Herbicidal effect, common purslane ([5]; 20 g./a.)	Herbicidal effect, common purslane ([5]; 40 g./a.)	Herbicidal effect, common lambsquarter ([6]; 10 g./a.)	Herbicidal effect, common lambsquarter ([6]; 20 g./a.)	Herbicidal effect, common lambsquarter ([6]; 40 g./a.)	Phytotoxicity on rice ([7]; 10 g/a)	Degree of damage [8]	also measured
CCOP(=O)(SCC(=O)N1CCCCC1C)SCc1ccc(Cl)cc1 (stereo not drawn) [Compound 49, O-ethyl-S-(4-chlorobenzyl)-S-(2-methylpiperidinocarbamoylmethyl)phosphorodithiolate]	5	5	5	5	5	5	0	0	0	3	4	5	3	4	5	4	4	5	0	-	Phytotoxicity on rice ([7]; 20 g/a): 0; Phytotoxicity on rice ([7]; 40 g/a): 1; Mortality [9]: 75.0%; Mortality [10]: 100%; Herbicidal effects, barnyard grass ([11]; 10 g/a): 5; Herbicidal effects, barnyard grass ([11]; 20 g/a): 5; Herbicidal effects, barnyard grass ([11]; 40 g/a): 5; Herbicidal effects, broad-leaved weeds ([12]; 10 g/a): 5; Herbicidal effects, broad-leaved weeds ([12]; 20 g/a): 5; Herbicidal effects, broad-leaved weeds ([12]; 40 g/a): 5
CCOP(=O)(SCC(=O)N1CCCCC1C)SCc1ccc(CC)cc1 (stereo not shown) [Compound 53]	4	5	5	5	5	5	0	0	0	3	4	5	3	3	5	3	3	4	0	-~+	Phytotoxicity on rice ([7]; 20 g/a): 0; Phytotoxicity on rice ([7]; 40 g/a): 0; Mortality [10]: 83.6%; Herbicidal effects, barnyard grass ([11]; 10 g/a): 5; Herbicidal effects, barnyard grass ([11]; 20 g/a): 5; Herbicidal effects, barnyard grass ([11]; 40 g/a): 5; Herbicidal effects, broad-leaved weeds ([12]; 10 g/a): 5; Herbicidal effects, broad-leaved weeds ([12]; 20 g/a): 5; Herbicidal effects, broad-leaved weeds ([12]; 40 g/a): 5
CCOP(=O)(SCCc1ccc(Cl)cc1)SCC(=O)N1CCCCC1C (stereo not shown) [Compound 60]																				-	
CCOP(=O)(SCC(=O)N1CCCCC1C)SCc1ccc(Cl)c(Cl)c1 (stereo not shown) [Compound 61]																				-	

Reference: patent US4015974A, “Amido phosphorothiolates” (priority 1972, dated 1977)
